{
  "source": "BindingDB's records for patent US9539260",
  "about": "(Novartis AG, 2017)",
  "key": {"[1]": {"molecular_target": "Phosphatidylinositol 4,5-bisphosphate 3-kinase catalytic subunit alpha isoform (Homo sapiens, UniProt P42336)", "sequence (P42336 whole entry, canonical isoform)": "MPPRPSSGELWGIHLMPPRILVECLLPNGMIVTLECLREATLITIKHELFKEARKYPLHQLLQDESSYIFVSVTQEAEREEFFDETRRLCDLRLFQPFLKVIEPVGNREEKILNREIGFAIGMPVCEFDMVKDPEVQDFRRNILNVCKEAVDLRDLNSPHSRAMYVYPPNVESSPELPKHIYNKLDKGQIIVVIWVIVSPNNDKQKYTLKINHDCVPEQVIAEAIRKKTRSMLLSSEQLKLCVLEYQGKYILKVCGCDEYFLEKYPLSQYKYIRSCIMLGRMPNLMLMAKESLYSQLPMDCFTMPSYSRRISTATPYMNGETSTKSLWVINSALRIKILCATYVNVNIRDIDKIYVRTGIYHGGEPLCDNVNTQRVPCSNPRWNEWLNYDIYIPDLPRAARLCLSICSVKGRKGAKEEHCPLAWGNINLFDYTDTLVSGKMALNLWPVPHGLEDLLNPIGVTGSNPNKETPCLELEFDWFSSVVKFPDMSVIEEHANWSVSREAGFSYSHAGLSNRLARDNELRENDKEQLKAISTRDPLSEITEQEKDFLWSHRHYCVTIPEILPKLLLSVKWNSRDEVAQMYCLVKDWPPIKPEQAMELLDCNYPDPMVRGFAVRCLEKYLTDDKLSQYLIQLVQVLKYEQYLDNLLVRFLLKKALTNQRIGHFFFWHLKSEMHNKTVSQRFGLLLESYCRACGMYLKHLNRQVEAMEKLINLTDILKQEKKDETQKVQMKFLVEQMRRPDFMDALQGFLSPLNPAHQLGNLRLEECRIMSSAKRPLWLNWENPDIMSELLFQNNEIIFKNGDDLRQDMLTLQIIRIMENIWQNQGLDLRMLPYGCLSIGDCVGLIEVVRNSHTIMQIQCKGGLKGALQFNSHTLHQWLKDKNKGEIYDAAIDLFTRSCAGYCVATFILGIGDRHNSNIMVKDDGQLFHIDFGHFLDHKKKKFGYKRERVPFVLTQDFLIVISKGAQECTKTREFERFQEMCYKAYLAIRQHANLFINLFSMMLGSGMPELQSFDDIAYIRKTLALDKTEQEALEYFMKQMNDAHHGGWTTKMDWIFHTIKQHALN", "assay": "Inhibition Assay", "conditions": "25 °C", "protocol": "(§1) The final concentrations of ATP and phosphatidyl inositol in the assay are 5 μM and 6 μg/mL, respectively. […] The final concentrations of ATP and phosphatidyl inositol (PI) in the assay are 1 μM and 10 μg/mL, respectively."}, "[2]": {"molecular_target": "T1, Phosphatidylinositol 4,5-bisphosphate 3-kinase catalytic subunit delta isoform (Homo sapiens, UniProt O00329)", "T1 sequence (O00329 whole entry)": "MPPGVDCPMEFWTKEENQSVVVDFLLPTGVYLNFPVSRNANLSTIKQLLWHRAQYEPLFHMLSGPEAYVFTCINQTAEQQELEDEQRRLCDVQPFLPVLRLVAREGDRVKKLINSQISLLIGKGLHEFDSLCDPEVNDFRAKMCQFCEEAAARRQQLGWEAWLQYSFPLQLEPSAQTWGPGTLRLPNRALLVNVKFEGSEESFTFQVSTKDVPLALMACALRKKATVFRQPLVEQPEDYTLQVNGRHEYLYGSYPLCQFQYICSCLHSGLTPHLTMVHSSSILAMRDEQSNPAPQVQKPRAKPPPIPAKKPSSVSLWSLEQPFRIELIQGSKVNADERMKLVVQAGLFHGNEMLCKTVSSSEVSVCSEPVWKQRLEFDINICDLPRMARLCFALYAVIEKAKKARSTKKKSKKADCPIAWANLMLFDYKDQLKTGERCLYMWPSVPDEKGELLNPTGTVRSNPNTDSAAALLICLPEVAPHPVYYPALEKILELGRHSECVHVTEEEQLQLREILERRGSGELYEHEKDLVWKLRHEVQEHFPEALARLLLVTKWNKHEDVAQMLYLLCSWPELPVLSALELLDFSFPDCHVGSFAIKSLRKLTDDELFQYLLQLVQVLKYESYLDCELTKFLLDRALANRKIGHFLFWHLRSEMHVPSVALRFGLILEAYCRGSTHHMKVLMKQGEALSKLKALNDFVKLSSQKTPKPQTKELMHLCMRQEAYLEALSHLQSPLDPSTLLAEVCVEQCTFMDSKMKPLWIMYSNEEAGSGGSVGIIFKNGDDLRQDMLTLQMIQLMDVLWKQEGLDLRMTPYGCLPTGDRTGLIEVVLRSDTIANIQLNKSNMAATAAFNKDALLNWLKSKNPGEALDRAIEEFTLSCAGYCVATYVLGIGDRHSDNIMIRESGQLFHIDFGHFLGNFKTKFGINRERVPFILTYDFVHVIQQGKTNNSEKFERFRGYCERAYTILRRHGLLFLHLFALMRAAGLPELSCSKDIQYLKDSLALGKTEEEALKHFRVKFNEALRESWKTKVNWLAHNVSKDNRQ", "assay": "Inhibition Assay", "conditions": "25 °C", "protocol": "as §1"}},
  "data": [
    {"smiles": "COc1ncc(N2CCOc3ccc(O[C@H]4CCN(C(=O)C5COCCO5)C4)cc32)cc1F", "note": "(some centres not stated) [US9539260, B115]", "values": [
      {"measurement": "IC50", "setting": "[1]", "value": 468, "unit": "nM"},
      {"measurement": "IC50", "setting": "[2]", "value": 23, "unit": "nM"}
    ]}
  ]
}
